Columns and labels:
[1] = test system: M. avium; experiment: Growth of M. avium in vivo in C57B1/6 mice, CFU per organ; set-up: species or system Mycobacterium avium; conditions: for viable bacteria in the lungs: week 2
[2] = test system: IFN-γ; experiment: Serum IFN-γ by ELISA in mice; format: in vivo
Description: (§1) Serum obtained from M. avium-infected mice that received ISS or PBS was assayed for IFN-γ and IL-12 by ELISA using mouse IFN-γ and IL-12 (p70) ELISA kits (Endogen, Inc. Woburn, […]), respectively, and following the manufacturer's instructions.

[3] = test system: IL-12 (p70); experiment: Serum IL-12 (p70) by ELISA in mice; format: in vivo
Description: as §1

[4] = test system: spleen and liver of M. avium-infected mice; experiment: Histologic examination of spleen and liver of M. avium-infected mice; format: in vivo
Description: Sections of the spleen and liver collected from the experimental and control M. avium-infected mice at 2, 4, and 6 weeks post-infection, were fixed overnight in 10% buffered formalin at room temperature, and embedded in paraffin. The paraffin-embedded tissue was further sectioned (5 μm thickness), stained with hematoxylin-eosin and observed under an Olympus microscope. At least three sections from each organ of each of the experimental and control mice were evaluated and representative fields were viewed at 100×.

[5] = test system: IFN-γ producing CD4+ and CD8+ T cells; experiment: Intracellular IFN-γ staining and secreted IFN-γ ELISA of re-stimulated splenocytes from M. avium-infected mice; format: in vivo; conditions: ISS 50 μg/mouse; 10^7 organisms/mouse; three weeks post-infection; anti-CD3/anti-CD28 re-stimulation
Description: Mice were injected intradermally (i.d.) with ISS (50 μg/mouse). The control mice received M-ODN (50 μg/mouse) or PBS (50 μl/mouse). All mice were infected with 1×10^7 M. avium. Three weeks after infection, the mice were sacrificed and splenocytes from mice receiving the same treatment were pooled. Intracellular cytokine staining was performed using the Cytofix/Cytoperm kit (Pharmingen) according to the manufacturer's instructions. Briefly, the splenocytes were stimulated with anti-CD3 and anti-CD28 activating antibodies in the presence of monensin to allow intracellular IFN-γ to accumulate for 6 hrs. Next, surface CD4 and CD8 were stained for, the cells were fixed, and the plasma membranes were permeabilized, allowing for intracellular staining with anti-IFN-γ. The cells were analyzed on a FACSCalibur flow cytometer (Becton Dickenson). To study IFN-γ production, splenocytes were incubated with anti-CD3 and anti-CD28 antibodies in vitro for 24 hrs, and these supernatants were assayed for the presence of IFN-γ by sandwich ELISA (Martin-Orozco, et al. (1999) Int. Immun. 11:1111-1118).

[6] = test system: indoleamine 2,3-dioxygenase (IDO); experiment: IDO gene induction in vivo in mice, semi-quantitative RT-PCR; conditions: 50 μg i.v.; after 16 hrs
[7] = test system: indoleamine 2,3-dioxygenase (IDO); experiment: IDO gene transcription in mBMDM in vitro, semi-quantitative RT-PCR; format: cell-based, mouse; conditions: mBMDM treated 3 days prior to M. avium infection; 4, 8, 24 hrs after infection
Description: 1-4×10^6 mBMDM were treated with ISS or M-ODN. After 3 days, the cells were infected with M. avium for 2 hrs. At 2, 24, and 48 hrs after infection, the M. avium-infected macrophages were lysed and total RNA was isolated using the Trizol Reagent (Gibco BRL). The induction of IDO gene transcription was measured by semi-quantitative […]. First-strand cDNA preparation and PCR amplification was carried out using the SuperScript Pre-amplification System (Gibco BRL) and AdvanTaq Plus DNA polymerase (Clontech, San Francisco, Calif.), respectively. PCR products were visualized by electrophoresis on 2% agarose gels. The primer sequences used were as follows:
For in vitro studies mBMDM were treated with ISS for 3 days prior to M. avium infection. Then, cells were lysed at 4, 8, and 24 hrs after infection, total RNA was extracted, and semi-quantitative RT-PCR was performed.

[8] = test system: M. avium; experiment: Attachment and/or invasion of M. avium into mBMDM, CFU immediately after infection; format: cell-based, Mycobacterium avium; conditions: vs cells treated with M-ODN or medium alone
Description: Alternatively, 5×10^4 mBMDM or hMDM was treated with ISS for 3 days before infection. Macrophages treated with M-ODN or with media alone served as controls. After 3 days, the cells were infected for 2 hrs with M. avium at a macrophage:bacteria ratio of 2:1 for mBMDM or of 1:10 for hMDM, and subsequently cultured in fresh media without antibiotics. To examine attachment and/or invasion of M. avium, the macrophages were lysed immediately after washing, and the number of bacteria were enumerated by the CFU assay. Intracellular growth of M. avium was determined on days 1, 3, and 7 after infection. To account for all the mycobacteria in each group, corresponding lysates were combined and then the number of CFU was determined. To examine the efficacy of anti-mycobacterial treatments, CFU recovered from cells treated with medium alone were considered as 100% growth.
ISS activate macrophages and induce the expression of surface adhesion molecules such as ICAM-1 (Martin-Orozco, et al. (1999) Int. Immun. 11:1111-1118). These molecules may affect the attachment of M. avium or its invasion into mouse bone marrow-derived macrophages (mBMDM). […]

[9] = ISS 3 days before i.v. infection, 10^7 organisms/mouse, four weeks after infection, vs M-ODN and PBS mice
[10] = other experiments, data not shown

Substance: 5′-TGACTGTGAACGTTCGAGATGA-3′ (SEQ ID NO:1) [ISS]
- growth of M. avium in the therapeutic model ([1]; C57B1/6 mice, 10^7 CFU i.v., ISS-ODN 50 μg/mouse alone one week after infection, 5 weeks after infection): did not inhibit the growth of M. avium
- viable bacteria in the lungs ([1]; ISS 100 μg/mouse i.d. 3 days before infection, 10^6 organisms/mouse, vs PBS): significantly lower number of viable bacteria
- difference of CFU in the lungs, controls vs ISS-treated mice [1, 9]: 1 log
- difference of CFU in the spleen, controls vs ISS-treated mice [1, 9]: 2 logs
- number of bacteria in the spleen ([1]; ISS i.d. 3 days before infection, 10^6 organisms/mouse, vs PBS, effects maximal at 4 weeks): almost two logs lower number of bacteria
- CFU in the spleen ([1]; ISS pretreatment, 10^6 organisms/mouse, week 6, vs PBS): equaled that observed in the control mice
- bacterial load in the lungs ([1]; ISS pretreatment, 10^6 organisms/mouse, week 6, vs control mice): exceeded that found in the lungs of control mice
- bacterial loads in the liver ([1]; ISS pretreatment, 10^6 organisms/mouse, weeks 2, 4, 6, vs PBS): no significant difference
- bacteria in the spleen ([1]; ISS prior to infection, 10^7 organisms/mouse, 4 weeks, vs PBS): nearly two logs less bacteria
- splenic CFU counts ([1]; ISS prior to infection, 10^7 organisms/mouse, 6 weeks, vs control): similar
- viable bacteria in the lungs ([1]; ISS prior to infection, 10^7 organisms/mouse, vs PBS): significantly lower number of viable bacteria
- mycobacterial loads in the liver ([1]; ISS prior to infection, 10^7 organisms/mouse, weeks 2, 4, 6, vs PBS): no significant difference
- persistence of the protective effect after administration ([1]; single injection of ISS, 10^6 organisms/mouse): up to four weeks
- serum IFN-γ levels ([2]; M. avium-infected mice (10^6 organisms/mouse), 2, 4, 6 weeks, ISS-pretreated vs PBS-pretreated): no significant differences
- time for serum IFN-γ to attain basal levels post injection [2, 10]: ≤ 3 weeks
- time of peak serum level of IFN-γ after administration [2, 10]: 1 days
- serum IL-12 levels ([3]; M. avium-infected mice (10^6 organisms/mouse), 2, 4, 6 weeks, below ELISA detection): < 5 pg/mL
- time for serum IL-12 to attain basal levels post injection [3, 10]: ≤ 3 weeks
- time of peak serum level of IL-12 after administration [3, 10]: 1 days
- histopathology of the livers ([4]; vs PBS-treated infected mice): no significant histopathological differences
- granulomas in the spleen ([4]; week 4, vs infected mice treated with PBS): notably smaller in size and surrounded by mononuclear cells
- granulomas in the spleens ([4]; week 6, vs PBS-treated infected mice): not significantly different
- frequency of infection-specific IFN-γ positive CD4+ or CD8+ T cells [5]: did not further increase
- IDO gene induction in vivo in the liver [6]: not in the liver
- IDO gene induction in vivo in the lungs and spleen [6]: observed
- optimal induction of IDO gene transcription [7]: require both treatment with ISS and M. avium infection
- CFU recovered immediately from cells treated before infection (attachment/invasion) [8]: not significantly different
